Data published in a melting point compilation (Tetko et al.; mined from patent text by program, amines drawn as free bases though some values may be those of a salt).

Compound	melting point [°C]
Clc1c2c(nc3cn[nH]c13)CCCC2	190 to 193
C#CCSc1nnc(-c2cccs2)s1	71 to 73
Cn1cc(O)c(=O)c2cc(F)c(F)cc21	264 to 265
COc1cc(Nc2nccc(-c3ccccc3)n2)cc(OC)c1OC	187
CCCCN(CCCC)CCCNC(=O)c1ccc2oc3ccc(C(=O)NCCCN(CCCC)CCCC)cc3c(=O)c2c1	89 to 92
C[C@]1(COc2ccc3nc(N4CCN(Cc5ccc(OC(F)(F)F)cc5)CC4)sc3c2)Cn2cc([N+](=O)[O-])nc2O1	206 to 207
COc1cc(C(=O)C(C)C)cc([N+](=O)[O-])c1O	85 to 87
C#Cc1cc2ncc(C#N)c(Nc3cc(OC)c(Cl)cc3Cl)c2s1	198 to 200
CN(C)C1CCN(c2cc3ccc(Br)cc3c(=O)[nH]2)CC1	227 to 228
Cc1ccc(-c2c(NS(=O)(=O)c3ccc(C(C)(C)C)cc3)nc(-c3cccs3)nc2OCCO)cc1	> 300
Cn1c(=O)c(-c2ccccc2)cc2cnc(N)nc21	250 to 255
CN(Cc1cc(Cl)c(O)c(Br)c1)C1CCCCC1	136 to 138
Cc1cccc(C)c1NC(N)=NOC1CCCCO1 (configuration not stated)	196 to 197
COC(=O)c1cc(C)c(C(OC(=O)C(C)c2ccc3cc(OC)ccc3c2)c2cc(-n3ccnc3)ccc2C)c(C)c1 (configuration not stated)	115 to 117
COc1cn(-c2cc3c(cc2F)OC(F)(F)O3)nc(-c2ccnn2-c2ccccc2)c1=O	200 to 202
CC12CCC3C(CC=C4CC(O)CCC43C)C1CC=C2I (configuration not stated)	169 to 171
CCOc1ccc(OCCCN2CCC(C(O)(c3ccc(F)cc3)c3ccc(F)cc3)CC2)cc1	89 to 91
COc1cc([N+](=O)[O-])ccc1S(=O)(=O)n1c(=O)n(C2CCCCCC2)c2cc(Cl)ccc21	193
CC(C)Nc1nc2c(F)c(F)c(Cl)cc2[nH]1	175 to 178
C[Si](C)(C)CC(CN)CC(=O)O (configuration not stated)	167 to 168
On1nc(Br)c(Cl)c1Br	160
Cc1cc(-c2csc(NC(=N)N)n2)c[nH]1	235 to 237
Cc1nc(N)c2nc(C)n(CCOCCCc3cccnc3)c2c1C	109 to 110

Compound	melting point [°C]
O=c1[nH]c2cc(Cl)ccc2c(=O)n1S(=O)(=O)c1ccc(Cl)cc1F	267 to 268
CC(C)(C)C(Br)(Br)C(=O)O	241 to 243
Cc1cc(OC(F)F)cc(NC(=O)NS(=O)(=O)c2ccccc2Cl)n1	169 to 170
C=C1CC(c2ccc(Br)s2)N(C)C1=O (configuration not stated)	177 to 180
CN1C2C=C(c3ccc(F)cc3)CC1CC2 (configuration not stated)	62 to 63
COc1cn(-c2ccc(N3CCC3=O)cc2F)nc(-c2ccnn2-c2ccccc2)c1=O	189 to 194
CNc1cc(C)c(O)c(C)c1C	120 to 122
Cc1cc2cnnc(Cl)c2n1CC(C)C	96 to 99
CC(C)(C)OC(=O)NCCCCCCCCNC(=O)OC(C)(C)C	96 to 97
FC(F)(F)c1cc(CN2CCc3cc(OC[C@H]4CO[C@](Cn5ccnc5)(c5ccc(Cl)cc5Cl)O4)ccc3C2)ccc1Cl (racemic)	107 to 108
N#Cc1cc(Cl)c(NC(=O)NC(=O)c2c(F)cccc2F)cc1Cl	238 to 240
COc1ccc(N2CCN(c3c(C)c4c(c(OC)c3C)OC(C)C4)CC2)cc1C (configuration not stated)	94 to 96
O=C(Nc1ccc(Br)cc1)N1COC2(c3ccc(F)cc3)Cc3cc(F)ccc3C2=N1 (configuration not stated)	208 to 209
O=C(NCC1CC1)c1c(NC(=O)c2cc(C(F)(F)F)nn2-c2ncccc2Cl)ccc2cn[nH]c12	240 to 242
CCCCC(=O)OCC(=O)C1C(C)CC2C3CC(Cl)C4=CC(=O)C=CC4(C)C3(Cl)C(O)CC21C (configuration not stated)	218
Nc1ccc(C#CC2CC2)c(F)c1	82 to 86
CC(=O)NNc1nc(C(F)(F)F)nc(-c2ccc(S(C)(=O)=O)cc2)c1-c1ccc(Cl)cc1	254 to 256
CC(C)c1nc(N)oc1-c1ccc(F)c2ccccc12	141
COc1ccc(S(=O)(=O)N2C(=O)C(OC(=O)Oc3ccccc3)(c3ccccc3Cl)c3cc(Cl)c(OC)cc32)c(OC)c1 (configuration not stated)	162 to 163
OC1C[C@H]2CN(C3=Nc4cc(Cl)ccc4Oc4ccccc43)CCN2C1 (some centres not stated)	90 to 92
O=C1OCc2c1cc1ccc3c(c1c2-c1ccc(F)cc1)OCO3	215 to 218
Nc1nn(-c2c(Cl)cc(C(F)(F)F)cc2Cl)cc1C1CC1(Br)Br (configuration not stated)	125 to 126

Further lines, results first:

melting point [°C]	Compound
148 to 151	CCSCCC(=O)NCC(=O)N1Cc2ccccc2Oc2ccc(Cl)cc21
93 to 94	Cc1ccc(C)c(OCCCC(C)(C)C(=O)Nc2cccc(N)c2)c1
107 to 108	CC(C)(COc1ccc(CC2SC(=O)NC2=O)cc1)c1ccccc1 (configuration not stated)
156 to 158	CC1(C)C(=O)N(CCN2CCc3c([nH]c4ccccc34)C2)c2ccccc21
182	N#CCCc1ccc(C(=O)O)cc1
133 to 135	CN(CCCN1c2ccccc2CCc2ccccc21)c1ncccc1C(=O)O
160 to 161	CCN1C(=O)C(C(=O)Nc2ccc(F)cc2F)c2cc(C(C)=O)ccc21 (configuration not stated)
183	CCNC(=O)Oc1cccc(NC(=O)C=C(C)OC)c1
90 to 92	O=C(O)CCC1CCN(C(=O)CN2CCN(c3ccncc3)CC2)CC1
118 to 120	CC(C)[C@H]1COC(=O)N1C(=O)[C@@H](CC(=O)OCc1ccccc1)Cc1ccccc1
93 to 94	CC(C)(C)OC(=O)N1CCN(c2ccc(OCc3ccccc3)cn2)CC1
166 to 169	CCCn1nc2c(N)nc3ccccc3c2c1CCCCS(=O)(=O)NC
227 to 229	COC(=O)C1=C(C)Nc2nccn2C1c1cccc(C(C)=O)c1 (configuration not stated)
165 to 166	O=C(O)CN1CC(=O)N(Cc2cccc([N+](=O)[O-])c2)C1=O
137	O=S(=O)(CC(O)(CO)c1ccccc1)c1ccccc1 (configuration not stated)
118 to 120	CC(C)[C@H](NC(=O)CCC(=O)c1ccccc1)C(=O)O
178 to 181	CC(C)OC(=O)N1CCC(c2nc3ccc(-c4ccc(C(N)=O)c(F)c4)cc3o2)CC1
250 to 251	CCOC(=O)Cn1c(=O)c(=O)[nH]c2cc(C(F)(F)F)ccc21
56 to 57	CCOCCOc1ccc(CCNC(=O)OC(C)(C)C)cc1

melting point [°C]	Compound
214 to 217	Clc1cccc(Nc2ncnc3[nH]nc(NCc4ccccc4)c23)c1
106 to 107	CN(O)C(=O)NCc1cccs1
150 to 154	CCCCc1nc(C(O)C(C)(C)C)c(C(N)=O)n1Cc1ccc(-c2ccccc2C(=O)O)cc1 (configuration not stated)
180	CCCCC(=O)c1ccc(C(=O)Nc2ccc3cc(CN4CCCC4)cnc3c2C)cc1
207	Cc1c(Sc2ccccc2C(F)(F)F)c2cc(NS(C)(=O)=O)ccc2n1CC(=O)O
138 to 140	CCOC(=O)C1N=c2sccc2=CN1N (configuration not stated)
92 to 95	O=[N+]([O-])c1ccc2[nH]cc(CCCBr)c2c1
140 to 145	CSCn1c(Br)c(Br)c(C#N)c1-c1ccc(C(F)(F)F)cc1
91	CCOC(=O)C1=C(C)NN=C(CC)C1c1cccc(C#N)c1 (configuration not stated)
143	COC(=O)c1ccc(Cc2cc3cc(Cl)ccc3n2S(C)(=O)=O)cc1
128 to 130	Cc1nc(-c2ccc(C(F)(F)F)cc2)sc1CCOc1ccc(CCC(=O)O)cc1
142 to 143	C=CCSc1cc(C(=O)O)cc(N)c1Oc1ccccc1
189 to 191	COc1ccc2c(c1)C(=O)C(=O)C1=C2OC2(CCN(CC(O)COc3ccc(F)cc3)CC2)CS1 (configuration not stated)
44 to 46	CCCC(=O)C(=CNc1ccc(CO)cc1)C(=O)OCC
242	C#CCOc1cc(O)ccc1-c1nc2cnccc2[nH]1
152 to 154	COC(=O)c1c2nc3ccccc3c-2[nH]c2ccccc12
124 to 128	Nc1ncccc1OCc1c(F)cccc1F
116 to 118	Oc1ccc2c(c1)cc1n2CCC1
> 270	CCn1c(=O)c2[nH]c(/C=C/c3ccc(F)cc3)nc2n(CC)c1=O

melting point [°C]	Compound
124 to 126	CCOC(C)n1c(C(=O)C(F)(F)F)nc(-c2ccc(OC)cc2)c1-c1ccc(OC)cc1 (configuration not stated)
149 to 150	CC(C)(C)c1ccc(/C=C/C(=O)Nc2ccc3occc3c2)cc1
172 to 174	COc1ccc(S(=O)(=O)C2(CCCC#Cc3ccc(Cl)cc3)SC(=O)NC2=O)cc1 (configuration not stated)
101 to 102	CCCOc1cc(C(=O)O)cc(N)c1-c1ccccc1
160	CCOC(=O)N1CCC(Cc2nc3ccccc3n2Cc2cccc(C)n2)CC1
86	CC(C)(C)OC(=O)CN(C(=O)CCl)c1ccccc1
169 to 172	Cc1cccc(Oc2cccc(Oc3ccc4c(c3)OCO4)c2C(=O)O)c1
115 to 117	CC(C)(C)CN(CC(O)C(Cc1ccccc1)NC(=O)C(CC(N)=O)NC(=O)c1ccc2ccccc2n1)C(=O)NC(C)(C)C (configuration not stated)
204 to 205	CCS(=O)c1nn(-c2ccccc2)c(=O)c2c(N)scc12 (configuration not stated)
175	Nc1c2c(nc3cccc(F)c13)CCCC2
196 to 200	COc1ccc(CN2Cc3cc(N(C)C)ccc3N3CC(=O)N=C23)cc1
170	CNC(=O)N(c1ccccc1)c1ccccc1
272 to 276	O=C(Nc1ccc(-n2ccnc2)cc1)NC12CC3CC(CC(C3)C1)C2
149 to 150	COc1cccc(CN2CCN(CCCOc3ccc4c(C)cc(=O)[nH]c4c3)CC2)c1
67 to 69	O=C(N[C@@H]1CCC[C@H]1O)C(O)=CC(=O)c1cc(Cc2ccc(F)cc2)cn(Cc2ccccc2F)c1=O
78	O=C(c1ccccc1O)c1ccccc1Br
84 to 85	C=CCOC1OC(C(O)CO)C(OCc2ccccc2)C1O (configuration not stated)
114 to 115	OC1(c2ccc3c(c2)OCO3)CCN(CC=Cc2ccccc2)CC1
127 to 129	CN(c1ccccc1)[C@@H]1C=Cc2ccccc2[C@H]1O
